# Results reported in PMC4858680, “A platinum-based hybrid drug design approach to circumvent acquired resistance to molecular targeted tyrosine kinase inhibitors” (Scientific Reports, 2016).
# Like-named read-outs stand apart in the source and are kept apart here.
# Tests used:
# P-gp (MDCKII–P-gp) = P-gp (MDCKII–P-gp) (Homo sapiens, UniProt P08183); conditions: 10 μM, mean of three experiments
# [1] = Chemical stability of the hybrid compounds; conditions: for chemical stability in culture medium: Dulbecco’s Modified Eagle Medium supplemented with 5 mM glutathione
# HEK293 Bcr-Abl E255K = experiment: Anticancer activity in HEK293 stably transfected with Bcr-Abl E255K; assay type: cell-based; conditions: for IC50: stably transfected
# H292 = experiment: Anticancer activity (cytotoxicity) in NSCLC cell line; assay type: cell-based; conditions: NSCLC; EGFR wild type; read-out: Anticancer activity (IC50) H292
# K562 Ima1.0 = experiment: Anticancer activity in imatinib-selected resistant K562 subline; assay type: cell-based; conditions: for IC50: read-out: Anticancer activity (IC50) K562 Imatinib selected (K562 Ima1.0), Bcr-Abl amplification
# p38 = experiment: Western blot analysis of p38 phosphorylation; assay type: cell-based
# HEK293 Bcr-Abl wild type = experiment: Anticancer activity in HEK293 stably transfected with wild type Bcr-Abl; assay type: cell-based
# K562 = experiment: Anticancer activity (cytotoxicity) in CML cell line; assay type: cell-based
# HEK293 Mock transfected = experiment: Anticancer activity in mock transfected HEK293; assay type: cell-based; conditions: Bcr-Abl negative
# HCC827 = experiment: Anticancer activity (cytotoxicity) in NSCLC cell line; assay type: cell-based; conditions: EGFR ΔE746-A750 (sensitizing)
# RPMI8226 = experiment: Anticancer activity (cytotoxicity) in Bcr-Abl negative cell line; assay type: cell-based
# H1975 = experiment: Anticancer activity (cytotoxicity) in NSCLC cell line; assay type: cell-based; conditions: H1975 versus HCC827
# ABCG2 = biological target: T1, ABCG2 (Homo sapiens, UniProt Q9UNQ0, R482G); experiment: 5D3 shift assay; assay type: cell-based; conditions: ABCG2-overexpressing S1M1-80 cells; flow cytometry
# T1 construct: endogenous in cells; host or cells: S1M1-80
# P-gp = P-gp (Homo sapiens, UniProt P08183); experiment: UIC2 shift assay; assay type: cell-based; parameters: endogenous in cells; host or cells: SW620 Ad300; conditions: P-gp overexpressing SW620 Ad300 cells; flow cytometry
# [2] = CML cell line, Bcr-Abl positive, Table 1, read-out: Anticancer activity (IC50) K562
# [3] = Table 2, read-out: Anticancer activity (IC50) K562 Sensitive parental
# P-gp (MDCKII–P-gp), sequence (P08183 whole entry): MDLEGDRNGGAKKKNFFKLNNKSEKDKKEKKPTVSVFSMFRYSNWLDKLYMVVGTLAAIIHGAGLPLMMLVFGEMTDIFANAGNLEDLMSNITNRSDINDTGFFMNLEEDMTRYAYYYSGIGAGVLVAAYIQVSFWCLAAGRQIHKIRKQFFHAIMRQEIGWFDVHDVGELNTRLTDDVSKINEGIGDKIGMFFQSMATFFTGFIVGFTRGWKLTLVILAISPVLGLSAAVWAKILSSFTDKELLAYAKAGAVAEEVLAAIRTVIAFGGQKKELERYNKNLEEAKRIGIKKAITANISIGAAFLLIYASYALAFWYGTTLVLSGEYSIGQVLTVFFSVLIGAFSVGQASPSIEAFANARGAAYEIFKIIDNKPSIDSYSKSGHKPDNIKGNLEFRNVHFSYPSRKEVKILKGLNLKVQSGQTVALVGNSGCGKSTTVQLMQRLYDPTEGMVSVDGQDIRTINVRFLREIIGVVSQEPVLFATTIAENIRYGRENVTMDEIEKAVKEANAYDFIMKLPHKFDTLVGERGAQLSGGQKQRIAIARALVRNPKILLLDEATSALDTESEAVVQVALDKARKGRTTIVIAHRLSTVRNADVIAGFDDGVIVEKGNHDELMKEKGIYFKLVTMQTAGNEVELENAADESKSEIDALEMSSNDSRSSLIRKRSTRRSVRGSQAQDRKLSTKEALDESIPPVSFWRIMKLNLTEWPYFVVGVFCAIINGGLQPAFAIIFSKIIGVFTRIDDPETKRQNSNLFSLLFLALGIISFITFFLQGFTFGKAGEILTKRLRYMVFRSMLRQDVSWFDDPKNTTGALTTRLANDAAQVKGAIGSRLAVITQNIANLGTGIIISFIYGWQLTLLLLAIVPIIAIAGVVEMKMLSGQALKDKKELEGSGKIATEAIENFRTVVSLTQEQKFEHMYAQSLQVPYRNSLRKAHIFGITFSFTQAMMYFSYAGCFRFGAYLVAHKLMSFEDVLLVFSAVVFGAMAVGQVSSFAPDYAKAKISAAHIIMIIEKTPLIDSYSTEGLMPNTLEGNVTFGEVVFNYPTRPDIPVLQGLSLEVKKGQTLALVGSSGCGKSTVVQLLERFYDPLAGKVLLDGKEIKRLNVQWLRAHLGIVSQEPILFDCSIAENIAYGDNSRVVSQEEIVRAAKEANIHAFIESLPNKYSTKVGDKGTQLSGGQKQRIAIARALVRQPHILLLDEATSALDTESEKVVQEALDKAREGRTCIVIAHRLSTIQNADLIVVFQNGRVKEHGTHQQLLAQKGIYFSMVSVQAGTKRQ
# P-gp, sequence (P08183 whole entry): as above
# T1 sequence (Q9UNQ0 whole entry R482G): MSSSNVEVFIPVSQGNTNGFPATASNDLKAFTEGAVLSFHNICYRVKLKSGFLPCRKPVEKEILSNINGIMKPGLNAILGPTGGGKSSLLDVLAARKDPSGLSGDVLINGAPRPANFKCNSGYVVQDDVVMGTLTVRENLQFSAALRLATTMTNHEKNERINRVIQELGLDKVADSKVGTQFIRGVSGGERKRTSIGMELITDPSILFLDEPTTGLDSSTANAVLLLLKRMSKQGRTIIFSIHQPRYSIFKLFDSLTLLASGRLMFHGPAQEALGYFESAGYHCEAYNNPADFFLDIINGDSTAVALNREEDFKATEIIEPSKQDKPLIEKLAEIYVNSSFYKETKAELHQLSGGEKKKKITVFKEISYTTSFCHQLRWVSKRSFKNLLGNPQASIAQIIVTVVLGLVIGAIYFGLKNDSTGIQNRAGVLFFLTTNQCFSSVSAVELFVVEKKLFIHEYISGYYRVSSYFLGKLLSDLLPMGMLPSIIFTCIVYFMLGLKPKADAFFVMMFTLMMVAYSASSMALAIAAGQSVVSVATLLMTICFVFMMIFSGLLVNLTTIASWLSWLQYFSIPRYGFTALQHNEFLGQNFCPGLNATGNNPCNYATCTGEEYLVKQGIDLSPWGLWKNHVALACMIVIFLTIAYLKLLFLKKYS
smiles,measurement,setting,value
"C#Cc1cccc(Nc2c3cc(OCCOC)c(OCCOC)cc3nc[n+]2[Pt@SP3-2]([NH3+])([NH3+])[Cl])c1 [2c, transplatin-erlotinib]",A to B transport (apparent permeability),P-gp (MDCKII–P-gp),3.57 × 10^−6
same,B to A transport (apparent permeability),P-gp (MDCKII–P-gp),3.40 × 10^−6
same,chemical stability in culture medium,[1],undergo gradual degradation to release the original TKI
N.N.[Cl][Pt][Cl] [Cisplatin],IC50,HEK293 Bcr-Abl E255K,6.54 ± 0.49 µM
same,IC50,H292,2.12 ± 0.87 µM
same,IC50,K562 Ima1.0,17.5 ± 1.06 µM
same,p38 phosphorylation (Western blot),p38,induce p38 phosphorylation
same,IC50,HEK293 Bcr-Abl wild type,8.16 ± 1.01 µM
same,IC50,K562; [2],19.8 ± 1.42 µM
same,IC50,K562; [3],19.8 ± 1.42 µM
same,IC50,HEK293 Mock transfected,5.43 ± 0.72 µM
same,IC50,HCC827,6.65 ± 1.66 µM
same,IC50,RPMI8226,2.97 ± 0.82 µM
"C#Cc1cccc(Nc2c3cc(OCCOC)c(OCCOC)cc3nc[n+]2[Pt-2]2([Cl])[NH2+]C3CCCCC3[NH2+]2)c1 (stereo not drawn) [2b, oxaliplatin-erlotinib]",A to B transport (apparent permeability),P-gp (MDCKII–P-gp),6.59 × 10^−6
same,IC50,H292,1.33 ± 0.39 µM
same,chemical stability in all conditions tested,"[1]; saline, phosphate buffered solution (pH 4 and 7.4), culture medium with 5 mM glutathione",stable
O=C1[O][Pt]2([NH][C@@H]3CCCC[C@H]3[NH]2)[O]C1=O [Oxaliplatin],IC50,HEK293 Bcr-Abl E255K,2.65 ± 0.71 µM
same,Fold resistance HEK293 Bcr-Abl E255K,HEK293 Bcr-Abl E255K; versus HEK293 Bcr-Abl wild type,0.8
same,IC50,H292,3.77 ± 0.35 µM
same,IC50,K562 Ima1.0,16.4 ± 1.14 µM
same,Fold resistance K562 Ima1.0,K562 Ima1.0; versus sensitive parental K562,1.0
same,IC50,HEK293 Bcr-Abl wild type,3.15 ± 0.87 µM
same,IC50,K562; [2],16.6 ± 2.08 µM
same,IC50,K562; [3],16.6 ± 2.08 µM
same,IC50,HEK293 Mock transfected,2.41 ± 0.32 µM
same,IC50,HCC827,3.6 ± 1.76 µM
same,IC50,RPMI8226,0.43 ± 0.04 µM
same,Fold resistance (IC50 in H1975/IC50 in HCC827),H1975,1.4
O=c1c(O)c(-c2ccc(O)c(O)c2)oc2cc(O)cc(O)c12 [quercetin],5D3 shift (interaction with ABCG2),ABCG2,concentration dependent antibody shift
"COc1cc2c(Nc3ccc(Br)cc3F)[n+]([Pt@SP2-2]([NH2])([NH3+])[Cl])cnc2cc1OCC1CCN(C)CC1 [3a, cisplatin-vandetanib]",IC50,H292,26.4 ± 3.19 µM
"Cc1ccc(NC(=O)c2ccc(CN3CCN(C)CC3)cc2)cc1Nc1nccc(-c2cccnc2)[n+]1[Pt@SP3-2]([NH3+])([NH3+])[Cl] [1c, transplatin-imatinib]",DNA damage marker (phosphor-γ-H2Ax) (Western blot),phosphor-γ-H2Ax,concentration dependent upregulation
same,IC50,K562 Ima1.0,1.05 ± 0.14 µM
same,activation of downstream ERK1/2 (Western blot),ERK1/2 in K562 Ima1.0,able to inhibit the activation
same,IC50,K562; [2],1.04 ± 0.01 µM
same,IC50,K562; [3],1.04 ± 0.01 µM
same,chemical stability in culture medium,[1],undergo gradual degradation to release the original TKI
same,IC50,HEK293 Mock transfected,10.1 ± 1.39 µM
C=C[C@H]1C[N@@]2CC[C@H]1C[C@H]2[C@H](O)c1ccnc2ccc(OC)cc12 [quinine],UIC2 shift (interaction with P-gp),P-gp,concentration dependent antibody shift
"COc1cc2c(Nc3ccc(Br)cc3F)[n+]([Pt@SP3-2]([NH2])([NH3+])[Cl])cnc2cc1OCC1CCN(C)CC1 [3c, transplatin-vandetanib]",IC50,H292,18.4 ± 4.48 µM
